Experiment [1] has as its target T1, human kynurenine-3-monooxygenase (hKMO) (Homo sapiens, UniProt O15229).
T1 construct: gene KMO; purified KMO protein with C-terminal His-FLAG-tag
The experiment can be described thus: KMO NADPH-consumption assay (BPS Bioscience KMO Screening Kit), dose-response; positive control. The class given is biochemical.

Experiment [2] addresses T1, human kynurenine-3-monooxygenase (hKMO). The experiment can be described thus: KMO NADPH-consumption assay; […] inhibition at […], […] at […]. The class given is biochemical.

IC50 data for two molecules are collected here from paper PMC8199213, “Pharmacophore-Based Virtual Screening of Novel Competitive Inhibitors of the Neurodegenerative Disease Target Kynurenine-3-Monooxygenase” (Molecules, 2021).

As a reminder, the IC50 is the point on the concentration scale where inhibition reaches its midpoint. Low values mean inhibition by little substance, high ones a need for much substance.

T1 sequence (O15229 whole entry): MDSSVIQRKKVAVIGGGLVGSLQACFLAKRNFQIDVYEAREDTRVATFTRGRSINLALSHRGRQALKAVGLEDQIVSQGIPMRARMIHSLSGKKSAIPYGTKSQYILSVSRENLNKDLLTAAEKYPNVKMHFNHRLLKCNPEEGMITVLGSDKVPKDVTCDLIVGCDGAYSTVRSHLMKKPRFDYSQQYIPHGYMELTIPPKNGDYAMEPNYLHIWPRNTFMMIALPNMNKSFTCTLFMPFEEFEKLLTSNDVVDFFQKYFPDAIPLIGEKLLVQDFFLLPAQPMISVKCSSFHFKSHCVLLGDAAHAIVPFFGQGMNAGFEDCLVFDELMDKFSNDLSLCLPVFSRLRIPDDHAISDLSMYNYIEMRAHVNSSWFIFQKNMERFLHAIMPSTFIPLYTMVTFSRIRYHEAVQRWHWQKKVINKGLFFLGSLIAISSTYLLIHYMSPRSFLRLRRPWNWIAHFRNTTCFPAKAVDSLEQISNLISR

In experiment [1], `COc1ccc(S(=O)(=O)Nc2nc(-c3cccc([N+](=O)[O-])c3)cs2)cc1OC` [Ro 61-8084] had an IC50 of 727 ± 88 nM.

`Cc1cc2nc(CCC(=O)O)c(=O)[nH]c2cc1C` [VS6, F6548-0495]: the IC50 in experiment [2] is less than 10000 nM.
